In patent publication US10221179B2, “Substituted pyrazoloquinazolinones and pyrroloquinazolinones as allosteric modulators of group II metabotropic glutamate receptors” (DOMAIN THERAPEUTICS, priority 2014, dated 2019):

Columns and labels:
[1] = target: T1, human mGluR2 (hmGluR2) (Homo sapiens, UniProt Q14416); experiment: Ca++ functional assay, human mGluR2 transiently over-expressed in HEK-293 cells (agonist and negative allosteric modulator modes); format: cell-based; settings: glutamate at EC80, intracellular calcium (Fluo4AM), read-out: hmGluR2 negative allosteric modulator activity IC50
T1 construct: expressed in transfected cells; host or cells: HEK-293 cells, transient co-transfection by electroporation
T1 sequence (Q14416 19-872): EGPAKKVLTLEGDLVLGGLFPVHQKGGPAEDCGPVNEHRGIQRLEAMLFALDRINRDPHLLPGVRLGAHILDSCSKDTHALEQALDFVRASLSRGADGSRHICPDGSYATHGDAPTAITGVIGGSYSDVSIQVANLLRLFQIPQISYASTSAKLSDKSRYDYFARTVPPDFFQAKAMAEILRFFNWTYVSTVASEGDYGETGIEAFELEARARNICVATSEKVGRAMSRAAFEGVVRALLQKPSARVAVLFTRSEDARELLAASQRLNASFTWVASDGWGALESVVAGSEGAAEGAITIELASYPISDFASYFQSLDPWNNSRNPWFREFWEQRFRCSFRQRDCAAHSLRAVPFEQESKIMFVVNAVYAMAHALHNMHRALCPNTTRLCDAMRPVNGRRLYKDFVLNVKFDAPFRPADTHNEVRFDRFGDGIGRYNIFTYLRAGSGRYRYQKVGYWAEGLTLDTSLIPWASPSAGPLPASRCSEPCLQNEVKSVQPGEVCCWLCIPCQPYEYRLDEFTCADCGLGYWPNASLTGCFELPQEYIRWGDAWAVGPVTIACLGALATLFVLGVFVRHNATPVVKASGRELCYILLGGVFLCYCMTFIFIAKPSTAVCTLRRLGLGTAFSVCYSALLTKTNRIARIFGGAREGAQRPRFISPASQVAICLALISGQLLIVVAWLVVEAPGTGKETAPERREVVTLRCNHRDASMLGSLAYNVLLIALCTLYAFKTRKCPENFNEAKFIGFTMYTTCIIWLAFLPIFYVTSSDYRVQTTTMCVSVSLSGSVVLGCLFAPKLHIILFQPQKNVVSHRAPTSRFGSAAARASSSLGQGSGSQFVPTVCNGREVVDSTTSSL
Description: Example 127: Human mGluR2 and mGluR3 Evaluation Using Ca^++ Functional Assay
Examples of the present invention were tested successively for their agonist and negative allosteric modulator activities on human mGluR2 (hmGluR2) and mGluR3 (hmGluR3) transiently over-expressed in HEK-293 cells.
Cell Culture and Transfection
HEK-293 cells are maintained in Modified Eagle's Medium supplemented with 10% Foetal Calf Serum, 1% Penicillin/Streptomycin and 1% non-essential amino acids at 37° C./5% CO2.
Cells are co-transfected by electroporation with four DNA plasmids encoding hmGluR2 or hmGluR3, a chimeric G protein allowing redirection of the activation signal to intracellular calcium pathway (Brabet I et al., Neuropharmacology 37(8), 1043-51, 1998), and two glutamate transporters minimizing receptor desensitization by endogenous glutamate. After transfection, cells are cultured for 24 h at 37° C./5% CO2.
Calcium Assay IC50 Determination
Receptor activity is detected by changes in intracellular calcium measured using the fluorescent Ca^2+ sensitive dye, Fluo4AM (Molecular Probes).
On the day of the assay, culture medium is aspirated and replaced during 3 hours by medium without serum supplemented with 1% Glutamax, 1% Penicillin/Streptomycin and 1% non-essential amino acids. Then, cells are washed with freshly prepared buffer B (HBSS 1×(PAA), Hepes 20 mM, MgSO4-7H2O 1 mM, Na2CO3 3.3 mM, CaCl2-2H2O 1.3 mM, 0.1% BSA, Probenecid 2.5 mM) and loaded at 37° C. in 5% CO2 for 1.5 hours with buffer B containing 1 μM Fluo4AM, 0.1 mg/mL Pluronic Acid, 7 μg/mL Glutamate Pyruvate Transaminase and 2 mM sodium pyruvate. Afterwards cells are washed twice with buffer B. Then cells are detached using StemPro Accutase (Fischer Scientific), resuspended in buffer B and seeded in 384 well plate at a density of 30,000 cells per well. Addition of compounds and intracellular Ca^2+ measurements (excitation 485 nm, emission 525 nm) are performed by the fluorescence microplate reader FLIPRTetra (Molecular Devices).
Agonist and negative allosteric modulator activities of compounds are consecutively evaluated on the same cell plate. […] Then, cells are stimulated by an EC80 glutamate concentration and fluorescence is recorded for additional 3 minutes. EC80 glutamate concentration is the concentration giving 80% of the maximal glutamate response. Agonist or negative allosteric modulator activity(ies) are evaluated in comparison to basal signals evoked by buffer B or EC80 glutamate alone, respectively.
For IC50 determination, a dose-response test is performed using 20 concentrations (ranging over 6 logs) of each compound. Dose-response curves are fitted using the sigmoidal dose-response (variable slope) analysis in GraphPad Prism program (Graph Pad Inc) and IC50 of negative allosteric modulator activity is calculated. Dose-response experiments are performed in duplicate, two times independently.

Structure (SMILES)	IC50 [1]	melting point
Cc1cc(-c2cc3n(C)c(=O)c4ccccc4n3n2)ccn1 [Example 2, 4-methyl 2-(2-methyl-pyridin-4-yl)-4H-pyrazolo[1,5-a]quinazolin-5-one]	< 1 µM	
CCc1cc(-c2cc3n(C)c(=O)c4ccccc4n3n2)ccn1.Cl [Example 3, 2-(2-Ethyl-pyridin-4-yl)-4-methyl-4H-pyrazolo[1,5-a]quinazolin-5-one]	< 1 µM	> 250 °C
CCCc1cc(-c2cc3n(C)c(=O)c4ccccc4n3n2)ccn1.Cl [Example 4, 2-(2-propyl-pyridin-4-yl)-4-methyl-4H-pyrazolo[1,5-a]quinazolin-5-one]	< 1 µM	> 250 °C
Cl.Cn1c(=O)c2ccccc2n2nc(-c3ccnc(C4CC4)c3)cc12 [Example 5, 2-(2-Cyclopropyl-pyridin-4-yl)-4-methyl-4H-pyrazolo[1,5-a]quinazolin-5-one]	< 1 µM	248 to 251 °C
Cl.Cn1c(=O)c2ccccc2n2nc(-c3ccnc(C4CCC4)c3)cc12 [Example 6, 2-(2-cyclobutyl-pyridin-4-yl)-4-methyl-4H-pyrazolo[1,5-a]quinazolin-5-one]	< 1 µM	236 to 244 °C
C=C(C)c1cc(-c2cc3n(C)c(=O)c4ccccc4n3n2)ccn1 [Example 10, 2-(2-Isopropenyl-pyridin-4-yl)-4-methyl-4H-pyrazolo[1,5-a]quinazolin-5-one]	< 1 µM	
CC(C)c1cc(-c2cc3n(C)c(=O)c4ccccc4n3n2)ccn1.Cl [Example 11, 2-(2-Isopropyl-pyridin-4-yl)-4-methyl-4H-pyrazolo[1,5-a]quinazolin-5-one]	< 1 µM	> 250 °C
Cn1c(=O)c2ccccc2n2nc(-c3ccnc(C#N)c3)cc12 [Example 12, 4-(4-Methyl-5-oxo-4,5-dihydro-pyrazolo[1,5-a]quinazolin-2-yl)-pyridine-2-carbonitrile]	< 1 µM	> 250 °C
COc1cc(-c2cc3n(C)c(=O)c4ccccc4n3n2)ccn1 [Example 14, 2-(2-Methoxy-pyridin-4-yl)-4-methyl-4H-pyrazolo[1,5-a]quinazolin-5-one]	< 1 µM	> 250 °C
CCOc1cc(-c2cc3n(C)c(=O)c4ccccc4n3n2)ccn1 [Example 15, 2-(2-ethoxy-pyridin-4-yl)-4-methyl-4H-pyrazolo[1,5-a]quinazolin-5-one]	< 1 µM	180 to 182 °C
CC(C)Oc1cc(-c2cc3n(C)c(=O)c4ccccc4n3n2)ccn1 [Example 16, 2-(2-Isopropoxy-pyridin-4-yl)-4-methyl-4H-pyrazolo[1,5-a]quinazolin-5-one]	< 1 µM	173 to 176 °C
Cn1c(=O)c2ccccc2n2nc(-c3ccnc(OC4CCC4)c3)cc12 [Example 17, 2-(2-Cyclobutoxy-pyridin-4-yl)-4-methyl-4H-pyrazolo[1,5-a]quinazolin-5-one]	< 1 µM	218 to 222 °C
Cn1c(=O)c2ccccc2n2nc(-c3ccnc(OCC4CC4)c3)cc12 [Example 19, 2-(2-Cyclopropylmethoxy-pyridin-4-yl)-4-methyl-4H-pyrazolo[1,5-a]quinazolin-5-one]	< 1 µM	185 to 189 °C
Cn1c(=O)c2ccccc2n2nc(-c3ccnc(OCC(F)(F)F)c3)cc12 [Example 21, 4-Methyl-2-[2-(2,2,2-trifluoro-ethoxy)-pyridin-4-yl]-4H-pyrazolo[1,5-a]quinazolin-5-one]	< 1 µM	219 to 223 °C
Cn1c(=O)c2ccccc2n2nc(-c3ccnc(OCC(F)F)c3)cc12 [Example 22, 4-Methyl-2-[2-(2,2-difluoro-ethoxy)-pyridin-4-yl]-4H-pyrazolo[1,5-a]quinazolin-5-one]	< 1 µM	209 to 213 °C
Cn1c(=O)c2cc(Cl)ccc2n2nc(-c3ccnc(C(F)(F)F)c3)cc12 [Example 35]	< 1 µM	
Cn1c(=O)c2cc(Br)ccc2n2nc(-c3ccnc(C(F)(F)F)c3)cc12 [Example 39]	< 1 µM	

Structure (SMILES)	IC50 [1]	melting point
Cn1c(=O)c2ccc(Cl)cc2n2nc(-c3ccnc(C(F)(F)F)c3)cc12 [Example 56, 8-Chloro-4-methyl-2-(2-trifluoromethyl-pyridin-4-yl)-4H-pyrazolo[1,5-a]quinazolin-5-one]	< 1 µM	
Cn1c(=O)c2ccc(Br)cc2n2nc(-c3ccnc(C(F)(F)F)c3)cc12 [Example 58, 8-Bromo-4-methyl-2-(2-trifluoromethyl-pyridin-4-yl)-4H-pyrazolo[1,5-a]quinazolin-5-one]	< 1 µM	
CN(C)C(=O)c1ccc2c(=O)n(C)c3cc(-c4ccnc(C(F)(F)F)c4)nn3c2c1 [Example 79, 4-Methyl-5-oxo-2-(2-trifluoromethyl-pyridin-4-yl)-4,5-dihydro-pyrazolo[1,5-a]quinazoline-8-carboxylic Acid Dimethylamide]	< 1 µM	
CNc1cc2c(=O)n(C)c3cc(-c4ccnc(C(F)(F)F)c4)nn3c2cc1OC [Example 94, 8-Methoxy-4-methyl-7-methylamino-2-(2-trifluoromethyl-pyridin-4-yl)-4H-pyrazolo[1,5-a]quinazolin-5-one]	< 1 µM	
Cn1c(=O)c2cc(Cl)ccc2n2nc(-c3ccnc(Cl)c3)cc12 [Example 95, 7-Chloro-2-(2-chloro-pyridin-4-yl)-4-methyl-4H-pyrazolo[1,5-a]quinazolin-5-one]	< 1 µM	
Cn1c(=O)c2cc(Cl)ccc2n2nc(-c3ccnc(C4CC4)c3)cc12 [Example 96]	< 1 µM	
Cn1c(=O)c2cc(Cl)ccc2n2nc(-c3ccnc(OCC(F)(F)F)c3)cc12 [Example 98, 7-Chloro-4-methyl-2-[2-(2,2,2-trifluoro-ethoxy)-pyridin-4-yl]-4H-pyrazolo[1,5-a]quinazolin-5-one]	< 1 µM	
COc1ccc2c(c1)c(=O)n(C)c1cc(-c3ccnc(Cl)c3)nn21 [Example 99, 2-(2-Chloro-pyridin-4-yl)-7-methoxy-4-methyl-4H-pyrazolo[1,5-a]quinazolin-5-one]	< 1 µM	
COc1ccc2c(c1)c(=O)n(C)c1cc(-c3ccnc(C4CC4)c3)nn21 [Example 100, 2-(2-Cyclopropyl-pyridin-4-yl)-7-methoxy-4-methyl-4H-pyrazolo[1,5-a]quinazolin-5-one]	< 1 µM	
Cc1cc(-c2cc3n(C)c(=O)c4ccccc4n3n2)cc(Cl)n1 [Example 105, 2-(2-Chloro-6-methyl-pyridin-4-yl)-4-methyl-4H-pyrazolo[1,5-a]quinazolin-5-one]	< 1 µM	
Cc1cc(-c2cc3n(C)c(=O)c4ccccc4n3n2)cc(C2CC2)n1 [Example 106, 2-(2-Cyclopropyl-6-methyl-pyridin-4-yl)-4-methyl-4H-pyrazolo[1,5-a]quinazolin-5-one]	< 1 µM	
Cn1c(=O)c2ccccc2n2nc(-c3ccncc3Cl)cc12 [Example 108, 2-(3-Chloro-pyridin-4-yl)-4-methyl-4H-pyrazolo[1,5-a]quinazolin-5-one]	< 1 µM	
Cn1c(=O)c2ccc(F)cc2n2nc(-c3ccnc(Cl)c3)cc12 [Example 117, 2-(2-Chloro-pyridin-4-yl)-8-fluoro-4-methyl-4H-pyrazolo[1,5-a]quinazolin-5-one]	< 1 µM	
Cn1c(=O)c2cc(F)c(N3CCC34CCC(CO)CC4)cc2n2nc(-c3ccnc(C(F)(F)F)c3)cc12 (stereo not shown) [Example 123, 7-Fluoro-8-(7-hydroxymethyl-1-aza-spiro[3.5]non-1-yl)-4-methyl-2-(2-trifluoromethyl-pyridin-4-yl)-4H-pyrazolo[1,5-a]quinazolin-5-one]		> 250 °C
Cn1c(=O)c2ccc(N3CCCC(O)C3)cc2n2nc(-c3ccnc(C(F)(F)F)c3)cc12 (stereo not shown) [Example 124, 8-(3-Hydroxy-piperidin-1-yl)-4-methyl-2-(2-trifluoromethyl-pyridin-4-yl)-4H-pyrazolo[1,5-a]quinazolin-5-one]		> 250 °C
Cn1c(=O)c2ccc(NCC(C)(C)O)cc2n2nc(-c3ccnc(C(F)(F)F)c3)cc12 [Example 126, 8-(2-Hydroxy-2-methyl-propylamino)-4-methyl-2-(2-trifluoromethyl-pyridin-4-yl)-4H-pyrazolo[1,5-a]quinazolin-5-one]		> 250 °C
